In patent US8415505B2, “2-methylene-5-substituted-methylenecyclopentanone derivatives and use thereof” (Shenyang Pharmaceutical University, priority 2008, dated 2013):
Read-outs that look alike come from different tables or passages of the source.

Legend:
[1] = system: Human breast cancer cells T47D; experiment: In vitro antitumor activity test (MTT), T47D; format: cell-based; details: 4 days culture with drug, growth inhibition, read-out: IC50 (μmol/L) T47D
Experimental: (§1) In Vitro Antitumor Activity Test
(§2) Cells were taken out carefully from liquid nitrogen (Frozen pipes), and the cell freezing medium was thawed rapidly in water bath at 37° C. in order to rapidly pass the temperature range of 0˜5° C. within which the cell is easily damaged. Cell suspension was sucked with pipette gun and put it into centrifuge tubes under a sterile condition, then centrifuged for 3 min at 1300 r/min. The supernatant was gently discarded, and then added with a fresh medium to pipette and mix the cells. Finally, the cells were transferred into culture flasks and cultured in a carbon dioxide incubator. The medium was changed once after 24 h.
(§3) Human prostate cancer cells (DU145, PC-3) were cultured in RPMI1640 medium containing 10% fetal bovine serum inactivated by heating, 100 IU/mL penicillin, 100 μg/mL streptomycin and 1 mmol/L L-glutamine. Human breast cancer cells (T47D, MDA-MB231) were cultured in RPMI1640 medium containing 10% fetal bovine serum inactivated by heating, 5 μg/mL insulin, 100 IU/mL penicillin, 100 μg/mL streptomycin, and 1 mmol/L L-glutamine. Human breast cancer cells (MCF-7) were cultured in DMEM culture medium containing 10% fetal bovine serum inactivated by heating, 5 μg/mL insulin, 100 IU/mL penicillin, 100 μg/mL streptomycin and […] L-glutamine. Mouse Lewis lung carcinoma cells (LL/2) and mouse melanoma cells (B16F0) were cultured in DMEM culture medium containing 10% fetal bovine serum inactivated by heating, 4.5 g/L glucose, 1.5 g/L NaHCO3, 100 IU/mL penicillin, 100 μg/mL streptomycin and 4 mmol/L L-glutamine. All of the above cell lines were incubated in 37° C. incubator with 5% carbon dioxide saturated humidity
(§4) After 2-3 cycles of cell culture and passage after the cell thawing, the cells were stable and ready for the experiment. The flask bottom should be covered with cells in each cell passage.
(§5) Trypsin solution (0.25%) was applied to digest the cells off the flask bottom when the flask bottom was covered with cells. The digested cell solution was moved to the centrifuge tubes and culture medium was added to stop the digestion; centrifuged for 3 min at 1300 r/min conditions; gently discarded the supernatant, and then added 5 mL medium, pipetted and mixed the cells; added 10 μL of the cell suspension to the cell count plate to count; adjusted the cell concentration to 2×10^4/mL; added 100 μL cell suspension to all wells of the 96 well plate except A1 well which acts as a blank; and placed the 96 well plate in an incubator to culture 24 h and to make sure the cells growing and attached on the wells.
(§6) First formulated the medicine in 16 mmol/L of DMSO storage solution; then diluted the solution with ethanol to 1.6 mmol/L solution; then further diluted with cell culture medium to 32 μmol/L, 16 μmol/L, 8 μmol/L, 4 μmol/L, 2 μmol/L and 1 μmol/L, and added to 96 well plate; 100 μl drug solution were added to each well, thus the final drug concentrations of cells were 16 μmol/L, 8 μmol/L, 4 μmol/L, 2 μmol/L, 1 μmol/L, and 0.5 μmol/L; 3 parallel wells were set for each concentration and placed the 96 well plate was placed into an incubator to continuously culture for 4 days
(§7) Added to each well of the 96 well plate with 50 μL of MTT (2 mg/mL); discarded the MTT (tetrazolium) solution after 4 h incubation in an incubator, then added 200 μL of DMSO; shaking the 96 well plate in a magnetic shaker for 10 min to make sure that the reaction product of the living cells and the MTT, i.e. formazan, was fully dissolved; measured the absorbance value (OD) in microplate reader at the selected 570 nm wavelength, and recorded results. Using the OD values of the cells that were not added with drugs as control, the cell growth inhibition ratio at each test concentration was calculated by using the following formula. Herein, the cancer cell growth inhibition is expressed as the half of the growth inhibitory concentration (IG50 Value) (i.e., the tested drug concentration resulting in 50% cell growth inhibition). […]

[2] = system: Human breast cancer cells MDA-MB231; experiment: In vitro antitumor activity test (MTT), MDA-MB231; format: cell-based; details: 4 days culture with drug, growth inhibition, read-out: IC50 (μmol/L) MDA-MB231
Experimental: as §1, §2, §3, §4, §5, §6, §7

[3] = system: Human prostate cancer cells PC-3; experiment: In vitro antitumor activity test (MTT), PC-3; format: cell-based; details: 96 h, PC-3 cells, 4 days culture with drug, growth inhibition, read-out: IC50 (μmol/L) PC-3
Experimental: as §1
as §2, with “h. […]” for “h.”
(§8) After 2-3 cycles of cell culture and passage after the cell thawing, the cells were stable and ready for the experiment. […]
(§9) Added to each well of the 96 well plate with 50 μL of MTT (2 mg/mL); discarded the MTT (tetrazolium) solution after 4 h incubation in an incubator, then added 200 μL of DMSO; shaking the 96 well plate in a magnetic shaker for 10 min to make sure that the reaction product of the living cells and the MTT, i.e. formazan, was fully dissolved; measured the absorbance value (OD) in microplate reader at the selected 570 nm wavelength, and recorded results. […]

[4] = system: Human breast cancer cells MCF-7; experiment: In vitro antitumor activity test (MTT), MCF-7; format: cell-based; details: MCF7, 96 h, MCF-7 cells, 4 days culture with drug, growth inhibition, read-out: IC50 (μmol/L) MCF-7
Experimental: as §1
as §2, with “h. […]” for “h.”
as §8, §9

[5] = system: Human prostate cancer cells DU145; experiment: In vitro antitumor activity test (MTT), DU145; format: cell-based; details: DU-145, 96 h, 4 days culture with drug, growth inhibition, read-out: IC50 (μmol/L) DU145
Experimental: as §1
as §2, with “h. […]” for “h.”
as §8, §9

[6] = system: Mouse Lewis lung carcinoma cells (LL/2); experiment: In vitro antitumor activity test (MTT), LL/2; format: cell-based; details: 96 h, LL/2 cells, 4 days culture with drug, growth inhibition, read-out: IC50 (μmol/L) LL/2
Experimental: as §1
as §2, with “h. […]” for “h.”
as §8, §9

[7] = system: mouse melanoma cells (B16F0); experiment: In vitro antitumor activity test (MTT), B16F0; format: cell-based; details: B16F0, 96 h, B16FD cells (head), 4 days culture with drug, growth inhibition, read-out: IC50 (μmol/L) B16FD
Experimental: as §1
as §2, with “h. […]” for “h.”
as §8, §9

Acute toxicity test = details: both sexes, mouse, in vivo, ip; Kunming mice, intraperitoneal injection, observed one week after administration, weighted regression method
Experimental: Animals: healthy Kunming mice, half male and half female, weighed 18-22 g. Animals were provided from Experimental Animal Center of Shenyang Pharmaceutical University. Certificate of Conformity: Real co-Zi Liao No. 033
Name of tested drugs: Example 13, Example 14
Drug preparation: Suspension formulated with 0.2% polysorbate 80 (Tween-80). Dosage to subject is expressed as mg/kg.
Route of administration: Intraperitoneal injection; injection volume was 0.1 ml/10 g, with one time multi-dose administration.
Test cycle and measurement: Observed one week after the administration; recorded toxic reactions in mice daily during observation, with the death of mice as the main indicator. Half lethal dose (LD50, mg/kg) of the administration of compound after a week can be obtained according to weighted regression method.

Row | SMILES | IC50 ([1]; Homo sapiens, 96 h) | IC50 ([2]; Homo sapiens, MDA-MB-231, 96 h) | also measured
1 | C=C1CCC(=Cc2ccc(OC)cc2)C1=O [Example 2, 2-methylene-5-(4-methoxybenzylidene)-cyclopentanone] | > 16 µmol/L | > 16 µmol/L | –
2 | C=C1CCC(=Cc2ccccc2OC)C1=O [Example 7, 2-methylene-5-(2-methoxybenzylidene)cyclopentanone] | 3.93 µmol/L | 11.6 µmol/L | –
3 | C=C1CCC(=Cc2ccc(OCC)cc2)C1=O [Example 8, 2-methylene-5-(4-ethoxybenzylidene)cyclopentanone] | 6.37 µmol/L | 4.57 µmol/L | –
4 | C=C1CCC(=Cc2ccc(OCCC)cc2)C1=O [Example 9, 2-methylene-5-(4-propoxybenzylidene)cyclopentanone] | > 16 µmol/L | > 16 µmol/L | –
5 | C=C1CCC(=Cc2ccc(S(C)(=O)=O)cc2)C1=O [Example 10, 2-methylene-5-(4-methanesulfonylbenzylidene)cyclopentanone] | 1.64 µmol/L | 4.96 µmol/L | –
6 | C=C1CCC(=Cc2ccc(N(C)C)cc2)C1=O [Example 11, 2-methylene-5-(4-N,N-dimethylbenzylidene)cyclopentanone] | – | – | IC50 [1]: 1.4 µmol/L; IC50 [2]: 8.58 µmol/L
7 | C=C1CCC(=Cc2ccc(OC)cc2O)C1=O [Example 12, 2-methylene-5-(2-hydroxy-4-methoxybenzylidene)cyclopentanone] | 1.29 µmol/L | 4.68 µmol/L | –
8 | C=C1CCC(=Cc2ccc(OC)c(O)c2)C1=O [Example 13, 2-methylene-5-(3-hydroxy-4-methoxybenzylidene)cyclopentanone] | 0.64 µmol/L | 2.53 µmol/L | IC50 [3]: 2.01 µmol/L; IC50 [4]: 1.21 µmol/L; IC50 [5]: 2.95 µmol/L; IC50 [6]: 5.09 µmol/L; IC50 [7]: 3.42 µmol/L; LD50 at 1 week (Acute toxicity test): 22.4 mg/kg
9 | C=C1CCC(=Cc2ccc(O)c(OC)c2)C1=O [Example 14, 2-methylene-5-(4-hydroxy-3-methoxybenzylidene)cyclopentanone] | 0.98 µmol/L | 3.21 µmol/L | IC50 [3]: 1.76 µmol/L; IC50 [4]: 1.05 µmol/L; IC50 [5]: 2.43 µmol/L; IC50 [6]: 6.39 µmol/L; IC50 [7]: 4.4 µmol/L; LD50 at 1 week (Acute toxicity test): 35.2 mg/kg
10 | C=C1CCC(=Cc2cccc(OC)c2OC)C1=O [Example 15, 2-methylene-5-(2,3-dimethoxybenzylidene)cyclopentanone] | > 16 µmol/L | > 16 µmol/L | –
11 | C=C1CCC(=Cc2ccc(OC)cc2OC)C1=O [Example 16, 2-methylene-5-(2,4-dimethoxybenzylidene)cyclopentanone] | > 16 µmol/L | 7.51 µmol/L | –
12 | C=C1CCC(=Cc2ccc(OC)c(OC)c2)C1=O [Example 17, 2-methylene-5-(3,4-dimethoxybenzylidene)cyclopentanone] | 2.66 µmol/L | 2.57 µmol/L | –
13 | C=C1CCC(=Cc2ccc3c(c2)OCO3)C1=O [Example 18, 2-methylene-5-(3,4-methylenedioxybenzylidene)cyclopentanone] | 4.89 µmol/L | 6.68 µmol/L | –
14 | C=C1CCC(=Cc2cc(OC)c(O)c(OC)c2)C1=O [Example 19, 2-methylene-5-(3,5-dimethoxy-4-hydroxybenzylidene) cyclopentanone] | 2.82 µmol/L | 3.44 µmol/L | –
15 | C=C1CCC(=Cc2cc(C(C)(C)C)c(O)c(C(C)(C)C)c2)C1=O [Example 20, 2-methylene-5-[3,5-di(t-butyl)-4-hydroxybenzylidene]-cyclopentanone] | 5.31 µmol/L | 14.8 µmol/L | –
16 | C=C1CCC(=Cc2cc(OC)c(OC)c(OC)c2)C1=O [Example 21, 2-methylene-5-(3,4,5-trimethoxybenzylidene)cyclopentanone] | 2.76 µmol/L | 7.84 µmol/L | –
17 | C=C1CCC(=CCC(C)C)C1=O [Example 22, 2-methylene-5-(3-methylbutylidene)cyclopentanone] | > 16 µmol/L | > 16 µmol/L | –
18 | C=C1CCC(=Cc2ccc(O)cc2)C1=O [Example 23, 2-methylene-5-(4-hydroxybenzylidene)cyclopentanone] | > 16 µmol/L | 5.96 µmol/L | –
19 | C=C1CCC(=Cc2ccccc2O)C1=O [Example 24, 2-methylene-5-(2-hydroxybenzylidene)cyclopentanone] | 5.02 µmol/L | 5.54 µmol/L | –
20 | C=C1CCC(=C(c2ccccc2)c2ccccc2)C1=O [Example 25, 2-methylene-5-diphenylmethylenecyclopentanone] | 7.23 µmol/L | > 16 µmol/L | –
21 | C=C1CCC(=C(c2ccc(C)cc2)c2ccc(C)cc2)C1=O [Example 26, 2-methylene-5-[bis(4-methylphenyl)-methylene]cyclopentanone] | 4.36 µmol/L | 7.49 µmol/L | –
22 | C=C1CCC(=C(c2ccc(F)cc2)c2ccc(F)cc2)C1=O [Example 27, 2-methene-5-[bis(4-fluorophenyl)-methylene]cyclopentanone] | – | – | IC50 [2]: > 16 µmol/L
